From US4822815A, “Dioxane hexenoic acids” (Imperial Chemical Industries PLC, priority 1985, dated 1989)

Columns and labels:
TXA2 [1] = test: Test (a) rabbit aortal strip model, U46619 as agonist; assay type: cell-based; conditions: ±0.05
Procedure: (§1) As stated earlier, the acids of formula I are antagonists of one or more of the actions of TXA2, for example certain of its actions on blood platelets, the vasculature and/or the lung.
(a) The rabbit aortal strip model devised by Piper and Vane (Nature, 1969, 223, 29-35) using as agonist a freshly prepared sample of TXA2, generated by addition of arachidonic acid (25 μg) to citrated, platelet rich rabbit plasma (250 μl) and allowing the mixture to aggregate fully over 90 seconds before use; alternatively the TXA2 mimetic agent known as U46619 (described by R L Jones et alia in "Chemistry, Biochemistry and Pharmacological Activity of Prostanoids" edited by S M Roberts and F Scheinmann, at page 211; Pergamon Press, 1979) may be used as the agonist;

[2] = target: T1, U46619 stimulated platelet aggregation (Homo sapiens, UniProt P21731); test: Test (b) blood platelet aggregation test (human citrated platelet-rich plasma, U46619); assay type: cell-based; conditions: U46619 stimulated aggregation of human platelets; averaged over several concentrations
T1 construct: human, citrated, platelet-rich plasma; endogenous in cells; host or cells: human platelets in citrated platelet-rich plasma
T1 sequence (P21731 1-343): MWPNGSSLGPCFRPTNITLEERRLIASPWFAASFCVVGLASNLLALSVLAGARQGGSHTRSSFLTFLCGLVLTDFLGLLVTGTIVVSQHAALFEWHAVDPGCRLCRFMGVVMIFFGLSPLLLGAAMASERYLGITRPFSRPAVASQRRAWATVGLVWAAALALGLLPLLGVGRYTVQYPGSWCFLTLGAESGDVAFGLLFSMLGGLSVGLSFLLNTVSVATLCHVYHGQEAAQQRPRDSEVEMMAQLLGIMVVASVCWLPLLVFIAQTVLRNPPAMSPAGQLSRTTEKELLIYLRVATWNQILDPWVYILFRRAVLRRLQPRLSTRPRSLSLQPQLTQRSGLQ
Source text: (b) A blood platelet aggregation test based on that described by Born (Nature, 1962, 194, 927-929) and involving:
(i) aggregating human, citrated, platelet-rich plasma by addition of the TXA2 mimetic agent U46619 so that a dose-response curve is generated,
(ii) generating a dose-response curve for U46619 stimulated platelet aggregation in the presence of decreasing amounts of test compound (generally in the range 10^-5 M to 10^-10 M); and
(iii) calculating a KB value indicating potency of TXA2 antagonism for the test compound, averaged over several concentrations, from the calculated 50% response value for U46619 aggregation in the presence and absence of test compound; and […]

[3] = system: U46619 induced bronchoconstriction; test: Test (c) bronchoconstriction test, Konzett-Rossler anaesthetised guinea-pig model; assay type: in vivo; conditions: 2 hours after oral dosing at 0.05 mg/kg
Source text: (c) a bronchoconstriction test involving measuring the inhibition by a test compound of the broncho-constriction induced in the Konzett-Rossler, anaesthetised guinea-pig model (as modified by Collier and James, Brit.J.Pharmacol., 1967, 30, 283-307) by intravenous administration of the TXA2 mimetic agent, U46619 and involving:
(i) obtaining a cumulative dose-response curve to U46619 induced bronchoconstriction by intravenous administration of constant volumes of increasing concentrations of U46619 (0.2-4 μg/kg) in physiological saline solution and expressing bronchoconstriction as the maximum of that theoretically obtainable with no air flow to the test animal;
(ii) generating a cumulative dose-response curve to U46619 induced bronchoconstriction at 30 minute intervals for 3 hours after oral dosing of test compound; and
(iii) calculating a dose-ratio for the test compound (that is the ratio of concentration of U46619 required to cause 50% bronchoconstriction in the presence and absence of test compound) indicating the potency of TXA2 antagonism.

[4] = system: hypertensive effect of U46619; test: Test (d) hypertensive effect of U46619 in anaesthetised rats; assay type: in vivo, rat (Alderley Park strain)
Procedure: (d) Male rats (Alderley Park strain) are anaesthetised with sodium pentobarbital and blood pressure is monitored at the carotid artery. The TXA2 mimetic agent is administered intravenously via the jugular vein and an ED50 (dose necessary to produce 50% of the maximum hypertensive effect) is established (n=3). [The ED50 for U46619 is approximately 5 μg/kg.] A test compound is then administered either intravenously (via the jugular vein) or orally (via a cannula) directly into the stomach and the animal challenged with an ED50 dose of U46619, five minutes after dosing with test compound and then successively every ten minutes until the hypertensive effect of U46619 is no longer blocked.

TXA2 [5] = test: TXA2 antagonism in general (statement in words)
Source text: as §1

Structure (SMILES) | pA2 (U46619) (TXA2 [1]) | Kb [2] [nM] | dose ratio [3] | duration of inhibition of the hypertensive effect of U46619 ([4]; about 80% inhibition, oral dose of 0.05 mg/kg) | inhibition of the hypertensive effect of U46619 ([4]; oral dose of 0.05 mg/kg, for more than 1 hour) | antagonism of one or more of the actions of TXA2 (in words) (TXA2 [5]) | ED50 ([4]; Rattus norvegicus, intravenous via the jugular vein, n=3, read-out: ED50 (dose necessary to produce 50% of the maximum hypertensive effect)) [µg/kg]
O=C(O)CC/C=C\C[C@H]1CO[C@@H](c2ccc([N+](=O)[O-])s2)O[C@H]1c1ccccc1O (relative stereo) [Example 4] | 8.3 | 7.54 | > 100 | more than 1 hour | about 80% | especially potent antagonists | 
O=C(O)CC/C=C\C[C@H]1CO[C@@H](c2ccsc2)O[C@H]1c1ccccc1O (relative stereo) [Example 8, 4(Z)-6-([2,4,5-cis-]-4-o-hydroxy-phenyl-2-[3-thienyl]-1,3-dioxan-5-yl)hexenoic acid] | 7.6 | 13.8 | 3 |  |  | especially potent antagonists | 
N#Cc1ccc([C@@H]2OC[C@H](C/C=C\CCC(=O)O)[C@H](c3ccccc3O)O2)s1 (relative stereo) [Example 9, 4(2)-6([2,4,5-cis]-2-[5-cyano-2-thienyl]-4-o-hydroxphenyl-1,2-dioxan-5-yl)hexenoic acid] |  |  |  |  |  | especially potent antagonists | 
CCCCC[C@H](O)/C=C/[C@@H]1[C@@H](C/C=C\CCCC(=O)O)[C@H]2CO[C@@H]1C2 [Example U46619, reference compound] |  |  |  |  |  |  | ~5
